The values below come from PubChem BioAssay AID1963984 (Molecular Pharmacology Branch, DTP, NCI, 2024).

For the experiment, the system named is 233499-124-R-J3-PDC spheroids with HUVEC/MSC, viability. Description: Anticancer human tumor 233499-124-R-J3-PDC patient-derived colon adenocarcinoma cell line growth inhibition [PI3K]. To be noted: for IC50: curve of first compound; for viability, T/C: stronger effect = lower value. The source says: Combinatorial screen of targeted agents with the PI3K inhibitors inavolisib, alpelisib, duvelisib, and copanlisib in multi-cell type tumor spheroids
A high-throughput screen of multi-cell type tumor spheroids was designed to identify active combinations of targeted small molecules and PI3K pathway inhibitors. Complex spheroids include a stromal component modeled by human endothelial cells (HUVEC) and fibroblasts modeled by human mesenchymal stem cells (MSCs). The concentration ranges selected for each drug and investigational agent were based upon clinically achievable concentrations if the clinical Cmax of the agent was known.
Compounds. The drugs and investigational agents: inavolisib (NSC800729), alpelisib (NSC765974), duvelisib (NSC772469), copanlisib (NSC816437), ipatasertib (NSC767898), afuresertib (NSC778305), talazoparib (NSC767125), sapanisertib (NSC764658), selumetinib (NSC741078), tovorafenib (DAY101, NSC766906), vemurafenib (NSC761431), ravoxertinib (NSC781343), sotorasib (NSC818433), MRTX1133 (NSC 836407), abemaciclib (NSC 768073), palbociclib (NSC758247), venetoclax (NSC 766270), SY5609 (NSC837396), enzalutamide (NSC755605), and darolutamide (NSC825331), were obtained from the National Cancer Institute (NCI) Developmental Therapeutics Program Chemical Repository. The FDA-approved anticancer drug set is available from the NCI Developmental Therapeutics Program. […] The stock solutions were prepared in dimethyl sulfoxide (DMSO, Sigma-Aldrich, St. Louis, MO, cat. D2650) at 800-fold the tested concentration and stored at -70 degrees C prior to their use. All drugs and investigational agents were tested over a range starting from a high concentration at or near the clinical Cmax and decreasing in half-log increments. If the clinical Cmax for an agent had not been determined, the highest concentration tested was 10 microM.
Cell Culture. All cells were maintained in an incubator at 37 degrees C and 5% CO2 with 95% humidity. The PDC lines were cultured according to standard operating procedures established by the NCI PDMR (https://pdmr.cancer.gov/sops/default.htm). All PDCs were thawed and cultured in Matrigel-coated flasks prepared with a working solution of 1X Ham's F-12 nutrient mix, without supplementation (Invitrogen, Waltham, MA, cat. 11765054), 100 U/mL penicillin-streptomycin (Invitrogen, cat. 15140122), and 2.5% Matrigel (Corning Inc., Corning, NY, cat. 354248) for the first three passages. The 354836-022-R-J1-PDC, 475296-252-R-J1-PDC, and 997726-040-R-J2-PDC lines were cultured in 6A media, which includes advanced DMEM/F-12 (Thermo Fisher Scientific, cat. 12634028), 10 mM HEPES (Thermo Fisher Scientific, cat. 15630080), 1X GlutaMAX supplement (Thermo Fisher Scientific, cat. 35050061), 0.1 mg/mL primocin (InvivoGen, San Diego, CA, cat. ant-pm-2), 10% defined fetal bovine serum, heat inactivated (HyClone Laboratories Inc., Logan, UT, cat. SH30070.03HI), 50% L-WRN conditioned media (ATCC, cat. CRL-3276), 1.25 mM N-Acetyl-L-cysteine (Sigma-Aldrich, cat. A9165), 10 mM nicotinamide (Sigma-Aldrich, cat. N0636), 1X B-27 supplement (Thermo Fisher Scientific, cat. 17504044), 1X N-2 supplement (Thermo Fisher Scientific, cat. 17502048), and 10 microM Y-27632 dihydrochloride (Tocris Bioscience, Bristol, United Kingdom, cat. 1254). The 624824-186-R-J2-PDC line was cultured in 6C/Colon 1B media, which includes all 6A media components plus 50 ng/mL human EGF recombinant protein (Thermo Fisher Scientific, cat. PHG0311). […]
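Note: spheroids exposed to agents for seven days before readout.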
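Throughout, for viability, T/C: percent viability relative to DMSO vehicle control taken as 100%.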

For the compound `CC1(C)CCC(CN2CCN(c3ccc(C(=O)NS(=O)(=O)c4ccc(NCC5CCOCC5)c([N+](=O)[O-])c4)c(Oc4cnc5[nH]ccc5c4)c3)CC2)=C(c2ccc(Cl)cc2)C1` + CC(Nc1ncnc2nc[nH]c12)c1cc2cccc(Cl)c2c(=O)n1-c1ccccc1, the IC50 was 5.69 µM (second compound 0.0316 µM); 5.6 µM (second compound 0.1 µM); 5.61 µM (second compound 0.316 µM); 5.39 µM (second compound 1 µM); 4.74 µM (second compound 3.16 µM); 5.45 µM (second compound 10 µM). Besides, the viability, T/C was 87.4% (second compound 0.0316 µM, first compound 0.0316 µM); 101% (second compound 0.0316 µM, first compound 0.1 µM); 95.4% (second compound 0.0316 µM, first compound 0.316 µM); 96.6% (second compound 0.0316 µM, first compound 1 µM); 96.2% (second compound 0.0316 µM, first compound 3.16 µM); 6.26% (second compound 0.0316 µM, first compound 10 µM). Further, the viability, T/C (second compound 0.1 µM, first compound 0.0316 µM) was 89.9%; the viability, T/C (second compound 0.1 µM, first compound 0.1 µM) is 98.7%; the viability, T/C (second compound 0.1 µM, first compound 0.316 µM) was 87.5%; the viability, T/C (second compound 0.1 µM, first compound 1 µM) was 99.6%; the viability, T/C (second compound 0.1 µM, first compound 3.16 µM) was 106%; the viability, T/C (second compound 0.1 µM, first compound 10 µM) was 2.9%. Further, the viability, T/C by setting is: (second compound 0.316 µM, first compound 0.0316 µM) 116%; (second compound 0.316 µM, first compound 0.1 µM) 92.6%; (second compound 0.316 µM, first compound 0.316 µM) 89.8%; (second compound 0.316 µM, first compound 1 µM) 95.4%; (second compound 0.316 µM, first compound 3.16 µM) 96.7%; (second compound 0.316 µM, first compound 10 µM) 2.85%. The viability, T/C by setting is: (second compound 1 µM, first compound 0.0316 µM) 96.5%; (second compound 1 µM, first compound 0.1 µM) 83.6%; (second compound 1 µM, first compound 0.316 µM) 103%; (second compound 1 µM, first compound 1 µM) 90.3%; (second compound 1 µM, first compound 3.16 µM) 91.2%; (second compound 1 µM, first compound 10 µM) 2.36%. For the same compound, the viability, T/C is, setting by setting: (second compound 3.16 µM, first compound 0.0316 µM) 81.8%; (second compound 3.16 µM, first compound 0.1 µM) 84.7%; (second compound 3.16 µM, first compound 0.316 µM) 98.8%; (second compound 3.16 µM, first compound 1 µM) 97.1%; (second compound 3.16 µM, first compound 3.16 µM) 76%; (second compound 3.16 µM, first compound 10 µM) 2.35%. Further, the viability, T/C reads like this: (second compound 10 µM, first compound 0.0316 µM) 79.6%; (second compound 10 µM, first compound 0.1 µM) 94%; (second compound 10 µM, first compound 0.316 µM) 86.8%; (second compound 10 µM, first compound 1 µM) 94.7%; (second compound 10 µM, first compound 3.16 µM) 93.1%; (second compound 10 µM, first compound 10 µM) 5.61%.
As for `CC1(C)CCC(CN2CCN(c3ccc(C(=O)NS(=O)(=O)c4ccc(NCC5CCOCC5)c([N+](=O)[O-])c4)c(Oc4cnc5[nH]ccc5c4)c3)CC2)=C(c2ccc(Cl)cc2)C1`, the viability, T/C was 96.5% [middle of 4 runs] (compound 0.0316 µM), 104% [middle of 4 runs] (compound 0.1 µM) and 100% [middle of 4 runs] (compound 3.16 µM).
